Target: Human PTP1B (Homo sapiens, UniProt P18031)
Conditions: 2 mM, control wells
Procedure: Human PTP1B (amino acid residues 1-298, cloned from a human placental library), without the GST tag and thrombin cleavage site, was inserted into a pMB replicon and transformed into E. coli BL21 (DE3), a strain containing a chromosomal copy of the gene for T7 RNA polymerase under control of a lacUV5 promoter. Expression of PTP1B was induced with isopropyl thiogalactose and cells were lysed in lysis buffer comprising 50 mM Tris-HCl pH 7.5, 10% glycerol, 1 mM EDTA, 3 mM DTT, 3 mM MgCl2, and 0.2 mg/ml lysozyme with 1 mg/ml DNAse I. The soluble protein was purified by ion exchange, hydrophobic interaction and gel exclusion chromatography for use in assays to identify PTP1B inhibitors. […] Recombinant proteins were stored at −70° C. until used.
Human PTP1B activity was measured using p-nitrophenol phosphate (pNPP) as substrate in a 96-well microtiter plate format. An assay pH of 7.2 is used for standard assays (measured extinction coefficient =9800 at pH 7.2).
Standard assays were conducted at room temperature in a total volume of 0.2 ml that contains Hepes buffer (50 mM, pH 7.2), NaCl (50 mM), EDTA (1 mM), DTT (1 mM), bovine serum albumin (1 mg/ml), pNPP (1.25 mM) and PTP1B (500 ng/ml, 13.5 nM). […] The OD^405 was subsequently measured. […]

Chain of Human PTP1B (P18031 1-298): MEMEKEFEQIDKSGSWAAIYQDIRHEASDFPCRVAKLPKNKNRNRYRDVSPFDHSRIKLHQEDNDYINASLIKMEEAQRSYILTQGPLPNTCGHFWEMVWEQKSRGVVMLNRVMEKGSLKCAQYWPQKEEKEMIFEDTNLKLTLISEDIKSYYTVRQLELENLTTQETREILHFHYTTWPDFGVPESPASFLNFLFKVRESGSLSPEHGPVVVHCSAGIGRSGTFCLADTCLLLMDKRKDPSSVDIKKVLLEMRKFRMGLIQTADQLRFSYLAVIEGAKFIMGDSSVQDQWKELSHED

[Na+].[Na+].[Na+].[O]=[V]([O-])([O-])[O-] [sodium orthovanadate]
inhibition of PTP1B-catalyzed hydrolysis of pNPP: completely
